Earlier results on two molecules are cited in US11975103B2, “Compositions of midodrine and methods of using the same” (XENAMED CORP., priority 2016, dated 2024).

The subject of data set [1] is patients with neurogenic orthostatic hypotension.
For data set [2] the following is noted: after oral administration of an immediate release tablet.

For the molecule `COc1ccc(OC)c(C(O)CNC(=O)CN)c1.Cl` (racemic) [Midodrine hydrochloride, (±)-2-amino-N-[2-(2,5-dimethoxyphenyl)-2-hydroxyethyl]acetamide monohydrochloride], the solubility in water entry is listed as “soluble in water”. Also, the “standing systolic blood pressure” value in data set [1] was “significantly increases”.
On to `COc1ccc(OC)c(C(O)CNC(=O)CN)c1` (stereo not shown) [midodrine], for which, in data set [2], the half-life result is given as “approximately 25 minutes” and the “time to peak plasma levels” value is “about 30 minutes”.
